Assay results taken from patent US10039761B2, “Co-crystals and pharmaceutical compositions comprising the same” (Vertex Pharmaceuticals Incorporated, priority 2013, dated 2018).
Entries after “also recorded” stand apart in the source; their conditions may differ. Each block holds one compound with its values, some of them ahead of it.

Assays:
[1] = Blood exposure in ST-02-0004 study; assay type: in vivo
Method: The anti-tumor activity of Compound (2) in combination with focused-beam IR and the standard of care agents, paclitaxel and carboplatin, was also evaluated in the ST 02 0004 model. Treatment with paclitaxel, carboplatin, and IR was administered once per week for three weeks alone or in combination with Compound (2). […] Further, the 50 and 25 mg/kg Compound (2), paclitaxel/carboplatin, IR combination groups were statistically different (P<0.05) from the paclitaxel/carboplatin, paclitaxel/carboplatin/50 mg/kg Compound (2), and paclitaxel/carboplatin/IR groups. Compound (2) blood exposures were 9.3 and 27 μg*h/mL for the 25 and 50 mg/kg Compound (2) bid groups, respectively.

[2] = system: triple-negative breast cancer cell lines; test: Doxorubicin/epirubicin combination, all breast cancer lines tested; assay type: cell-based; conditions: doxorubicin and Compound (2)
Method: (§1) The cell-based experiments and assays were performed with either molecule but not always with both. Compounds (1) and (2) were generally very similar in those assays and experiments. Analysis of the combination experiments was performed using two methods: the Bliss Additivity model and the Mixtures Blend method to determine the degree of synergy, additivity, or antagonism. In the Bliss method, a matrix of Bliss scores was generated for each cell line and treatment, and a sum of the Bliss values over the range of combination concentrations tested was calculated. […] Larger average Bliss values indicate greater confidence in reporting synergy, and smaller scores indicate greater confidence in reporting antagonism. In the Mixtures Blend method combinants were added in a range of optimal ratios using design of experiment (DOE) software (DX-8 from STAT-EASE); the cells were irradiated with 2 Gy as required. Synergy was determined using statistical analysis of the data (ANOVA) to indicate linear (additivity) or statistically significant (p<0.1) non-linear (antagonism or synergy) mixes of the combinants.

[3] = system: DU4475 breast cancer line; test: Doxorubicin or epirubicin combination in DU4475 cells; assay type: cell-based; conditions: Doxorubicin or epirubicin in combination with Compound (2)
Method: The cell-based experiments and assays were performed with either molecule but not always with both. […] Analysis of the combination experiments was performed using two methods: the Bliss Additivity model and the Mixtures Blend method to determine the degree of synergy, additivity, or antagonism. In the Bliss method, a matrix of Bliss scores was generated for each cell line and treatment, and a sum of the Bliss values over the range of combination concentrations tested was calculated. […] Larger average Bliss values indicate greater confidence in reporting synergy, and smaller scores indicate greater confidence in reporting antagonism. In the Mixtures Blend method combinants were added in a range of optimal ratios using design of experiment (DOE) software (DX-8 from STAT-EASE); the cells were irradiated with 2 Gy as required. Synergy was determined using statistical analysis of the data (ANOVA) to indicate linear (additivity) or statistically significant (p<0.1) non-linear (antagonism or synergy) mixes of the combinants.

[4] = system: ESO26 (GEJ) cancer cell line; test: Combination with genotoxic agents, viability (Mixtures analysis); assay type: cell-based; conditions: single agent IC50 on which the mixtures were based
Method: as §1

[5] = system: A549; test: Combination with etoposide, viability (Bliss analysis); assay type: cell-based; conditions: Compound (2) with etoposide; n = 1
Method: as §1

[6] = system: ESO26; test: as above; assay type: cell-based; conditions: Compound (2) with etoposide; n = 3
Method: as §1

[7] = Body weight in OD26749 xenograft studies; assay type: in vivo, nude mice
Method: The in vivo efficacies of Compounds (1) and (2) in combination with whole body IR were examined in the OD26749 primary NSCLC (non-small cell lung cancer) and the OE-19 GEJ cell line xenograft models. In these studies, Compounds (1) and (2) were formulated with 16% captisol/1% PVP/1% HPMC E5 pH2.
The in vivo efficacy of Compound (1) was evaluated in the primary OD26749 NSCLC subcutaneous xenograft model. […] Efficacy was evaluated using a regimen in which 2-Gy whole body IR was administered twice, one week apart. Compound (1) was administered PO (tid at 0, 3, and 7 h) at 100 mg/kg alone or with a single 2 Gy dose of whole body IR at 3.25 h. Seven days later, the same regimens were repeated. Compound (1) in combination with 2 Gy whole body IR induced significant tumor regression (% T/Ti of −75; P<0.01) compared to IR alone.
The efficacies of Compounds (1) and (2) in combination with whole body IR (2 Gy) were evaluated in the OD26749 primary NSCLC xenograft model at a Compound (1) dose level of 100 mg/kg PO bid (0 and 4 h) and Compound (2) dose levels of 50 mg/kg and 100 mg/kg PO bid (0 and 4 h). Two cycles of whole body IR (2 Gy) were given 15 min after the first compound administration (0.25 hour). Control animals were administered vehicle PO bid (0 and 4 h). Two cycles of treatment were performed on Day 0 and Day 7.

[8] = system: Colo205; test: Combination with genotoxic agents, cell viability (Mixtures Blend); assay type: cell-based; conditions: with Cisplatin and 5-FU
Method: (§2) The cell-based experiments and assays were performed with either molecule but not always with both. Compounds (1) and (2) were generally very similar in those assays and experiments. Analysis of the combination experiments was performed using two methods: the Bliss Additivity model and the Mixtures Blend method to determine the degree of synergy, additivity, or antagonism. In the Bliss method, a matrix of Bliss scores was generated for each cell line and treatment, and a sum of the Bliss values over the range of combination concentrations tested was calculated. […] Larger average Bliss values indicate greater confidence in reporting synergy, and smaller scores indicate greater confidence in reporting antagonism. In the Mixtures Blend method combinants were added in a range of optimal ratios using design of experiment (DOE) software (DX-8 from STAT-EASE); the cells were irradiated with 2 Gy as required. Synergy was determined using statistical analysis of the data (ANOVA) to indicate linear (additivity) or statistically significant (p<0.1) non-linear (antagonism or synergy) mixes of the combinants. The following SOC agents were tested in double combinations with Compound (1): etoposide (a topoisomerase inhibitor that induces DSBs), cisplatin (DNA cross-linker), carboplatin (DNA cross-linker), fluorouracil (5-FU, antimetabolite that inhibits thymidylate synthase), paclitaxel (mitotic inhibitor that binds to tubulin), cetuximab (EGFR monoclonal antibody), and radiation. […] These findings were confirmed using the Bliss Additivity model (Table 21). […] While there is not total agreement in the various lines tested, (as detailed in the other sections) the majority agree and the conclusions arrived at are common to each. […] The cancer cell lines in Table 19 indicate: ESO26-gastroesophageal junction cancer, OE19-gastroesophageal junction cancer, […]549-lung cancer, colo205-colon cancer, H460-lung cancer, H2009-lung cancer, FaDu-pharynx cancer, Miapaca2-pancreatic cancer, HFL1-human fetal lung fibroblast.

[9] = system: DMS-53; test: as above; assay type: cell-based; conditions: with Cisplatin and Etoposide
Method: as §2

[10] = system: OE19; test: as above; assay type: cell-based
Method: as §2

[11] = system: OD26749 primary NSCLC xenograft; test: OD26749 primary NSCLC xenograft efficacy with whole body IR; assay type: in vivo, nude mice; conditions: for % T/C (Day 29): 2 Gy IR ([…]) q7dx2

blood exposure ([1]; 25 mg/kg Compound (2) bid group): 9300 ng·h/mL | blood exposure ([1]; 50 mg/kg Compound (2) bid group): 27000 ng·h/mL | shift in IC50 of the combination compared to doxorubicin alone [2]: > 3 fold
SMILES: [2H]c1nc(C)nc([2H])c1-c1cc(NC[C@@H](C)c2cccc3c(C(=O)NC)ccnc23)ncn1 [Compound (2), (S)-N-methyl-8-(1-((2′-methyl-4′,6′-dideutero-[4,5′-bipyrimidin]-6-yl)amino)propan-2-yl)quinoline-4-carboxamide]
Bliss analysis, combination effect [3]: strong synergy (greater than 10 indicates strong synergy) | IC50 [4]: 20 µM | Average Bliss score [5]: 27.3 (n = 1) | Average Bliss score [6]: 43.2 ± 6.5 (n = 3)

SMILES: CNC(=O)c1ccnc2c([C@H](C)CNc3cc(-c4cnc(C)nc4)ncn3)cccc12 [Compound (1), (S)-N-methyl-8-(1-((2′-methyl-[4,5′-bipyrimidin]-6-yl)amino)propan-2-yl)quinoline-4-carboxamide]
Max. body wt loss (%) ([7]; PO 25 mg/kg bid (0, 4 h), 2 Gy IR ([…]) q7dx2, Day 8): −7.70% | Max. body wt loss (%) ([7]; PO 50 mg/kg bid (0, 4 h), 2 Gy IR ([…]) q7dx2, Day 8): −5.50% | Max. body wt loss (%) ([7]; PO 100 mg/kg bid (0, 4 h), 2 Gy IR ([…]) q7dx2, Day 8): −3.70% | Max. body wt loss (%) ([7]; PO 100 mg/kg tid (0, 3, 7 h) q7dx2, no IR): weight gain | Max. body wt loss (%) ([7]; PO 100 mg/kg tid (0, 3, 7 h) qdx1, 2 Gy qdx1 (3.25 h), Day 2): −9.70% | Max. body wt loss (%) ([7]; PO 100 mg/kg tid (0, 3, 7 h) qdx1, no IR, Day 2): −2.40% | Max. body wt loss (%) ([7]; PO 200 mg/kg qd, 2 Gy IR ([…]) q7dx2, Day 1): −6.10% | Synergy or Antagonism, No Radiation [8]: synergistic; also recorded: Synergy | Synergy or Antagonism, Plus Radiation (2 Gy) [8]: Synergy, Plus | Synergy or Antagonism, No Radiation [9]: Strong Synergy | Synergy or Antagonism, No Radiation ([10]; with 5-FU): Additivity | Synergy or Antagonism, Plus Radiation (2 Gy) ([10]; with 5-FU): Synergy*, Plus | Synergy or Antagonism, No Radiation ([10]; with Carboplatin): Antagonism | Synergy or Antagonism, Plus Radiation (2 Gy) ([10]; with Carboplatin): Synergy*, Plus | Synergy or Antagonism, No Radiation ([10]; with Cisplatin and Paclitaxel): Mix | Synergy or Antagonism, Plus Radiation (2 Gy) ([10]; with Cisplatin and Paclitaxel): Synergy, Plus | % T/C (Day 29) ([11]; PO 25 mg/kg bid (0, 4 h)): 25.6% | % T/C (Day 20) ([11]; PO 100 mg/kg tid (0, 3, 7 h) qdx1, 2 Gy qdx1 (3.25 h) whole body IR, 100 mg/kg): 26% | % T/C (Day 20) ([11]; PO 100 mg/kg tid (0, 3, 7 h) qdx1, no IR): 101% | % T/C (Day 29) ([11]; PO 200 mg/kg qd): 6.5%
